What all share (type): organism-based
Holding throughout (conditions): in vivo

Data set [1] concerns Mus musculus. Briefly: Toxicity in BS1 mouse assessed as occurrence of liver lesions at 250 mg/kg, ip. More on the design: dose 250 mg/kg, route intraperitoneal.
The test system of data set [2] is Mus musculus. Briefly: Toxicity in BS1 mouse assessed as ataxia at 250 mg/kg, ip. More on the design: dose 250 mg/kg, route intraperitoneal.
Data set [3] has as its system Mus musculus. The data set can be described thus: Toxicity in BS1 mouse assessed as lethargy, ataxia, gasping and clonic convulsion at 500 mg/kg, ip within 4 mins. The arrangement: dose 500 mg/kg, route intraperitoneal.
Data set [4] has as its system Mus musculus. The data set can be described thus: Toxicity in BS1 mouse at 63 mg/kg, ip. More on the design: dose 63 mg/kg, route intraperitoneal.
Data set [5] has as its system Mus musculus. The data set can be described thus: Toxicity in BS1 mouse at 125 mg/kg, ip. The arrangement: dose 125 mg/kg, route intraperitoneal.
In data set [6] the test system is Mus musculus. Briefly: Toxicity in BS1 mouse assessed as death at 500 mg/kg, ip within 4 mins. The arrangement: dose 500 mg/kg, route intraperitoneal.
The test system of data set [7] is Mus musculus. Briefly: Toxicity in BS1 mouse assessed as lethargy at 250 mg/kg, ip. More on the design: dose 250 mg/kg, route intraperitoneal.

Each structure is given as a SMILES string.

`C/C=C(\C)C(=O)O[C@@H](C)[C@](O)(C(=O)OCC1=CCN2CC[C@@H](OC(C)=O)[C@@H]12)C(C)C`: the Activity entry in the data set with Mus musculus [1] is given as “Non-toxic”; in the data set with Mus musculus [2], “Toxic”; with Mus musculus [3] it was “Toxic”; in the data set on Mus musculus [4], “Non-toxic”; with Mus musculus [5], “Non-toxic”; in the data set with Mus musculus [6] it was “Toxic”. For the same compound, in the data set on Mus musculus [7], the Activity entry is on record as “Toxic”.
Consider `C/C=C(\C)C(=O)O[C@@H](C)[C@](O)(C(=O)OCC1=CCN2CC[C@@H](O)[C@@H]12)C(C)C` [SCORPIOIDINE], for which the Activity entry with Mus musculus [1] is on record as “Non-toxic”; with Mus musculus [2], “Toxic”; in the data set on Mus musculus [3], “Toxic”; in the data set with Mus musculus [4] it was “Non-toxic”; in the data set on Mus musculus [5], “Non-toxic”; in the data set with Mus musculus [6] it was “Toxic”. For the same compound, the Activity entry in the data set on Mus musculus [7] is “Toxic”.

These data come from ChEMBL document CHEMBL1151393, “Biologically active pyrrolizidine alkaloids from the true forget-me-not, Myosotis scorpioides” (J Nat Prod, 1982).
